Laboratory results: patent publication US20060030566A1, “Novel quinoxalinone norepinephrine reuptake inhibitors for the treatment of central nervous system disorders” (Warner-Lambert Company, LLC, priority 2004, published 2006)
Structures can show the parent of a compound that is named as a salt.

Key:
[1] = biological target: T1, human norepinephrine transporter (Homo sapiens, UniProt P23975); assay: hNET receptor binding ([125I]-RTI-55 radioligand binding, membranes of transfected HEK-293 cells); details: 50 pM [125I]-RTI-55, HEK-293 cell membranes, 90 min at room temperature; IC50 converted to Ki by Cheng-Prusoff equation
T1 construct: host or cells: HEK-293
T1 sequence (P23975 whole entry): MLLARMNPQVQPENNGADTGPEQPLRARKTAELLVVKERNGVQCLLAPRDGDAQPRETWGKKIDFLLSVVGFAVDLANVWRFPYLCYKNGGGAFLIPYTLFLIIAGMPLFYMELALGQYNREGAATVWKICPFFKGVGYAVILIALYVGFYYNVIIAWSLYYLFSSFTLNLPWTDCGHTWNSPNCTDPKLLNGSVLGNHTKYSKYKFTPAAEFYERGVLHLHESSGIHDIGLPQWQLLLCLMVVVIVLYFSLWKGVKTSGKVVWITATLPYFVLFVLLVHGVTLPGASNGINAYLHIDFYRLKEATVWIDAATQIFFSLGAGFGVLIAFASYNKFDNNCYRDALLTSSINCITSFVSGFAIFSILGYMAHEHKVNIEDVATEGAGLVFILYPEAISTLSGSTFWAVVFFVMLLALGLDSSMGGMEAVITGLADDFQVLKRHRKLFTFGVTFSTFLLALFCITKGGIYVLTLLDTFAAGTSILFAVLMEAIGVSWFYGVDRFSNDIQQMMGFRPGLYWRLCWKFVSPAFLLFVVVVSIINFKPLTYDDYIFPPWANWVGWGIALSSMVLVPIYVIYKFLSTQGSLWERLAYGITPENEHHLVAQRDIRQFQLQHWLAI
From the text: The ability of the compounds of this invention to bind to the hNET and serotonin SERT receptor can be determined using conventional radioligand receptor binding assays. The receptors can be heterologously expressed in cell lines and experiments conducted in membrane preparations from the cell lines using procedures outlined below. IC50 concentrations can be determined by nonlinear regression of concentration-dependent reduction in specific binding. The Cheng-Prussoff equation can be used to convert the IC50 to Ki concentrations.
Cell pastes of HEK-293 cells transfected with the human norepinephrine transporter were supplied by the Pfizer Ann Arbor Protein Expression and Production group. Pellets were resuspended in 400 to 700 ml of Krebs-HEPES assay buffer (25 mM HEPES, 122 mM NaCl, 3 mM KCl, 1.2 mM MgSO4, 1.3 mM CaCl2, and 11 mM glucose, pH 7.4) with a Polytron homogenizer at setting 7 for 30 sec. Aliquots of membranes (5 mg/ml protein) were stored in liquid nitrogen until used.
The binding assay was set up in Beckman deep-well polypropylene plates with a total volume of 250 μl containing: drug (10^−5M to 10^−12M), cell membranes, and 50 pM [^125I]-RTI-55 (Perkin Elmer, NEX-272; specific activity 2200 Ci/mmol). The reaction was incubated by gentle agitation for 90 min at room temperature and was terminated by filtration through Whatman GF/C filter plates using a Brandel 96-well plate harvester. Scintillation fluid (100 μl) was added to each well, and bound [^125I]-RTI-55 was determined using a Wallac Trilux Beta Plate Counter. Test compounds were run in duplicate, and specific binding was defined as the difference between binding in the presence and absence of 10 μM desipramine.
Excel and GraphPad Prism software were used for data calculation and analysis. IC50 values were converted to Ki values using the Cheng-Prusoff equation.

Compound	melting point [°C]	Ki [1] [nM]
O=c1c(N2CCNCC2)nc2ccccc2n1-c1ccccc1 (as salt: hydrochloride) [Example 2, 1-Phenyl-3-piperazin-1-yl-1H-quinoxalin-2-one Hydrochloride]	290 to 292	
O=c1c(N2CCNCC2)nc2ccccc2n1-c1ccccc1F (as salt: hydrochloride) [Example 3, 1-(2-Fluoro-phenyl)-3-piperazin-1-yl-1H-quinoxalin-2-one Hydrochloride]	261 to 263	
Cc1ccc(-n2c(=O)c(N3CCNCC3)nc3ccccc32)cc1 (as salt: maleate) [Example 7, 3-Piperazin-1-yl-1-p-tolyl-1H-quinoxalin-2-one Maleate]	197 to 199	
O=c1c(N2CCCNCC2)nc2ccccc2n1-c1ccccc1Cl (as salt: maleate) [Example 11, 1-(2-Chloro-phenyl)-3-[1,4]diazepan-1-yl-1H-quinoxalin-2-one Maleate]	159 to 161	
Cc1ccc(-n2c(=O)c(N3CCCNCC3)nc3ccccc32)cc1 (as salt: maleate) [Example 13, 3-[1,4]Diazepan-1-yl-1-p-tolyl-1H-quinoxalin-2-one Maleate]	199 to 200	
CC(C)n1c(=O)c(N2CCCNCC2)nc2ccccc21 (as salt: maleate) [Example 15, 3-[1,4]Diazepan-1-yl-1-isopropyl-1H-quinoxalin-2-one Maleate]	147 to 149	
Cc1ccccc1-n1c(=O)c(N2CCNCC2)nc2ccccc21 [Example 5, 3-Piperazin-1-yl-1-o-tolyl-1H-quinoxalin-2-one]	151 to 153	69
O=c1c(N2CCNCC2)nc2ccc(F)cc2n1-c1ccccc1 [Example 8, 7-Fluoro-1-phenyl-3-piperazin-1-yl-1H-quinoxalin-2-one]	142 to 143	59
Cc1ccc2nc(N3CCNCC3)c(=O)n(-c3ccccc3)c2c1 [Example 9, 7-Methyl-1-phenyl-3-piperazin-1-yl-1H-quinoxalin-2-one]	166 to 168	82
O=c1c(N2CCCNCC2)nc2ccccc2n1-c1cccc(F)c1 [Example 12, 3-[1,4]Diazepan-1-yl-1-(3-fluoro-phenyl)-1H-quinoxalin-2-one]	128 to 129	60
Cc1ccc(-n2c(=O)c(N3CCCNCC3)nc3ccccc32)cc1 [Example 13, 3-[1,4]Diazepan-1-yl-1-p-tolyl-1H-quinoxalin-2-one Maleate]		97
CC(C)n1c(=O)c(N2CCCNCC2)nc2ccccc21 [Example 15, 3-[1,4]Diazepan-1-yl-1-isopropyl-1H-quinoxalin-2-one Maleate]		70

Further lines, results first:

melting point [°C]	Ki [1] [nM]	Compound
150 to 152	12	O=c1c(N2CCNCC2)nc2cc(F)ccc2n1-c1ccccc1 [Example 1, 6-Fluoro-1-phenyl-3-piperazin-1-yl-1H-quinoxalin-2-one]
	21	O=c1c(N2CCNCC2)nc2ccccc2n1-c1ccccc1 [Example 2, 1-Phenyl-3-piperazin-1-yl-1H-quinoxalin-2-one Hydrochloride]
	11	O=c1c(N2CCNCC2)nc2ccccc2n1-c1ccccc1F [Example 3, 1-(2-Fluoro-phenyl)-3-piperazin-1-yl-1H-quinoxalin-2-one Hydrochloride]
135 to 137	44	O=c1c(N2CCNCC2)nc2ccccc2n1-c1ccccc1Cl [Example 4, 1-(2-Chloro-phenyl)-3-piperazin-1-yl-1H-quinoxalin-2-one]
149 to 150	38	O=c1c(N2CCNCC2)nc2ccccc2n1-c1cccc(F)c1 [Example 6, 1-(3-Fluoro-phenyl)-3-piperazin-1-yl-1H-quinoxalin-2-one]
	36	Cc1ccc(-n2c(=O)c(N3CCNCC3)nc3ccccc32)cc1 [Example 7, 3-Piperazin-1-yl-1-p-tolyl-1H-quinoxalin-2-one Maleate]
146 to 147	15	O=c1c(N2CCNCC2)nc2cc(F)ccc2n1-c1c(F)cccc1F [Example 10, 1-(2,6-Difluoro-phenyl)-6-fluoro-3-piperazin-1-yl-1H-quinoxalin-2-one]
	41	O=c1c(N2CCCNCC2)nc2ccccc2n1-c1ccccc1Cl [Example 11, 1-(2-Chloro-phenyl)-3-[1,4]diazepan-1-yl-1H-quinoxalin-2-one Maleate]
151 to 152	27	O=c1c(N2CCCNCC2)nc2cc(F)ccc2n1-c1ccccc1 [Example 14, 3-[1,4]Diazepan-1-yl-6fluoro-1-phenyl-1H-quinoxalin-2-one]
